Holding throughout (assay type): cell-based
Test [1] addresses T1, L-type calcium channel (LTCC) (Rattus norvegicus, UniProt P22002).
T1 construct: gene Cacna1c; native channel in A7r5 cells
The test can be described thus: whole-cell patch clamp of ICa,L in A7r5 cells (stimulation). As to conditions: read-out: % stimulation above basal at 10 nM. A general note: The patch-clamp technique gives a direct electrical read-out from membranes.

In test [2] the target is T1, L-type calcium channel (LTCC). The test can be described thus: whole-cell patch clamp of ICa,L in A7r5 cells. Particulars: read-out: % of basal current at 1 μM.
For test [3] the target is unchanged. The test can be described thus: whole-cell patch clamp of basal and BAY-stimulated ICa,L in A7r5 cells.

T1 sequence (P22002 whole entry): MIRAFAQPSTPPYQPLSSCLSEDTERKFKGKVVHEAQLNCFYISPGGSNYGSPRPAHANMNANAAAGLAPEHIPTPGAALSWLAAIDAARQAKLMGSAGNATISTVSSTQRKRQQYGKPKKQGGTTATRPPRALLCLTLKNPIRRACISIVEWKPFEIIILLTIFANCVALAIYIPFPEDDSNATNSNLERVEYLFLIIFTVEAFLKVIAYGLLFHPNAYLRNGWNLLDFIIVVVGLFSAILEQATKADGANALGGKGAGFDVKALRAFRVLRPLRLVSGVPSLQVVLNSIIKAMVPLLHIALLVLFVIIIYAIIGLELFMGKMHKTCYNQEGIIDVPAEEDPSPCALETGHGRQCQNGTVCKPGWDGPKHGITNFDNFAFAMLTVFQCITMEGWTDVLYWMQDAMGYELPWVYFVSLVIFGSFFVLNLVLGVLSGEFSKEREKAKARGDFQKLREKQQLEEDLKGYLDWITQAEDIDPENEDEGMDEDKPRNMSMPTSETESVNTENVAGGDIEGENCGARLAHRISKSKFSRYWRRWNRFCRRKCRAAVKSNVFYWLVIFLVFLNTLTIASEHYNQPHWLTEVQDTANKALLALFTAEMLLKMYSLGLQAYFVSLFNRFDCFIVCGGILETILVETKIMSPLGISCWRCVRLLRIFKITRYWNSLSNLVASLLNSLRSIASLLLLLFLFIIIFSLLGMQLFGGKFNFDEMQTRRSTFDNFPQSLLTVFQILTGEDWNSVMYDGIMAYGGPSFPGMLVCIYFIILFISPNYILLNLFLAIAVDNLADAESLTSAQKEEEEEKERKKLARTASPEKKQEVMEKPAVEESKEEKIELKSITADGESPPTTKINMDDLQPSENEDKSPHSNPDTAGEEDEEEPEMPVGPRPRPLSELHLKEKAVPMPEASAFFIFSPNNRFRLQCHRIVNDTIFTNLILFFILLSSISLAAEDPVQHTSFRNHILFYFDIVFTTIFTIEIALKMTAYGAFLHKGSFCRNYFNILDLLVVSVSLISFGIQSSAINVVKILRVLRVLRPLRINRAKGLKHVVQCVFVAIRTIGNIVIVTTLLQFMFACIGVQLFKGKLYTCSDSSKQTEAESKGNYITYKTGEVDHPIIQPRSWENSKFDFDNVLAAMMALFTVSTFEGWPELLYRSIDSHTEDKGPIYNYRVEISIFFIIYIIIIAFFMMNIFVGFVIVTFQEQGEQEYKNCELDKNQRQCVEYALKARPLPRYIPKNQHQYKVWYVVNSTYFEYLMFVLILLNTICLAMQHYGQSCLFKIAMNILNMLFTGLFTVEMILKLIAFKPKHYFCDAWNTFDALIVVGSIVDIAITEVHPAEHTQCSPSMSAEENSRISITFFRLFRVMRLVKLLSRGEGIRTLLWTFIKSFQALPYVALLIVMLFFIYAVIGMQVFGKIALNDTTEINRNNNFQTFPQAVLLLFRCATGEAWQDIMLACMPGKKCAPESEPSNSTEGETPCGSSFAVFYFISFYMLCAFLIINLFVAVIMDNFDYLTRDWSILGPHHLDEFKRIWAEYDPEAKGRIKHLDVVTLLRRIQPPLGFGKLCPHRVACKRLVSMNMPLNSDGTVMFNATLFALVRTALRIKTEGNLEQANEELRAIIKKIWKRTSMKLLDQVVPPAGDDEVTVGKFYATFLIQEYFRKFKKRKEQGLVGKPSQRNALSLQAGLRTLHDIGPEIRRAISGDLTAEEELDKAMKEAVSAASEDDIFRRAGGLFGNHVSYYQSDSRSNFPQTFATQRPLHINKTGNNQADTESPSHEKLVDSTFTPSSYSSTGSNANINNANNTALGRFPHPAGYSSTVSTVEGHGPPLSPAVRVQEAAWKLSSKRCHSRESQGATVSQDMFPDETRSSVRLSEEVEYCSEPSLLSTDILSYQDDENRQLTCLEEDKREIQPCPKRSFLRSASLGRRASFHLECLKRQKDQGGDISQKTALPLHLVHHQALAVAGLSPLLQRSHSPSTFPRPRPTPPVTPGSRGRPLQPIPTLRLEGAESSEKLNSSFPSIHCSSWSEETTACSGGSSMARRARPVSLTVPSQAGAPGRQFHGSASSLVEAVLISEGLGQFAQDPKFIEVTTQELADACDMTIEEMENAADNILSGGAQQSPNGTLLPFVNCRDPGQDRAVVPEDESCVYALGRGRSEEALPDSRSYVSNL

Consider `COC(=O)C1=C(C)NC(C)=C([N+](=O)[O-])[C@H]1c1ccccc1C(F)(F)F` [BAY, (−)-Bay K8644], for which the activation at 0.01 µM in test [1] was 74.8 ± 5.7%. Take `COC(=O)C1=C(C)NC(C)=C(C(=O)OC)C1c1ccccc1[N+](=O)[O-]` [NIF, nifedipine]: the activity at 1 µM in test [2] came out at 20.6 ± 2.2%. Broadly, the inhibition is the relative decrease from the control value, in per cent. In the case of `CC(C)CCC[C@@H](C)[C@H]1CC[C@H]2[C@@H]3CC=C4C[C@@H](O)CC[C@]4(C)[C@H]3CC[C@]12C` [cholesterol], the inhibition at 100 µM in test [3] is 73.9 ± 16.8%.
